From patent publication US20220280594A1, “APPLICATION OF POLYPEPTIDE OR DERIVATIVE THEREOF” (CHENGDU HUITAI BIOMEDICINE CO., LTD., priority 2019, published 2022)
Ends that are not written are not given here. PEG = not defined here

How the values were obtained:
[1] = test system: human lung cancer cells (A549) subcutaneous xenograft; assay: lung cancer subcutaneous xenograft animal model, intravenous injection; format: in vivo, mice (BALB/c-nu/nu); conditions: intravenous 60 mg/kg once every other day, 20 days; for Weight of tumor (g) (mean ± SD): control 2.53 ± 0.17; for Volume of tumor (mm^3) (mean ± SD): control 3373.26 ± 581.44
Outline: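 Female BALB/c-nu/nu mice (4-6 weeks) inoculated subcutaneously with ~2×10^6 A549 cells; grouped once tumours exceeded 100 mm^3. Peptides given intravenously at 60 mg/kg for 20 days versus model control. Tumour weight and volume measured at dissection; body weight recorded every other day.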

[2] = test system: human pancreatic cancer cells (PANC-1); assay: scratch assay, migration of PANC-1 cells; format: cell-based; conditions: PANC-1, 10 μM, 48 hours; control group 66.65 ± 3.37
Outline: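 PANC-1 monolayers were scratched, then cultured for 48 h with 10 μM test compound in 2% FBS medium, in three parallel wells per group against a PBS control. Migration rate (%) was calculated as (original minus current scratch width) / original width × 100, from imaged wells.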

[3] = test system: human pancreatic cancer cells (PANC-1); assay: transwell invasion assay, PANC-1 cells; format: cell-based; conditions: PANC-1 transwell invasion, 10 μM, 24 hours; control group 727 ± 68
Outline: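 Serum-free PANC-1 cells were seeded in matrigel-coated upper chambers with complete medium below. After 4-5 hours at 37° C., peptide was added at 10 μM final. Following 24 hours, invaded cells on the lower membrane surface were fixed, crystal violet-stained, imaged and counted against untreated controls.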

[4] = test system: human liver cancer cells (HepG2); assay: scratch assay, migration of HepG2 cells; format: cell-based; conditions: HepG2, 10 μM, 48 hours; control group 71.01 ± 6.63
Outline: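 HepG2 monolayers scratched, then cultured 48 h in 2% FBS medium with test polypeptides at 10 μM versus PBS control, triplicate wells. Migration rate (%) computed from original versus current scratch width in images.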

[5] = test system: human breast cancer cells (MDA-MB-453); assay: scratch assay, migration of MDA-MB-453 cells; format: cell-based; conditions: MDA-MB-453, 10 μM, 48 hours; control group 32.42 ± 2.04
Outline: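 Confluent MDA-MB-453 monolayers were scratched, then treated with peptide at 10 μM in 2% FBS medium for 48 h, with a PBS control and triplicate wells. Migration rate (%) was taken as (original − current scratch width)/original width ×100 from images.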

[6] = test system: human breast cancer cells (MDA-MB-231); assay: scratch assay, migration of MDA-MB-231 cells; format: cell-based; conditions: MDA-MB-231, 10 μM, 48 hours; control group 36.19 ± 5.15
Outline: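 MDA-MB-231 monolayers (1-2×10^5 cells/well) were scratched, then kept 48 h in medium with 2% FBS containing polypeptide at 10 μM, with a PBS control, in triplicate wells. Migration rate (%) was taken from scratch width: (original − current)/original ×100.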

[7] = test system: human breast cancer cells (MCF-7); assay: scratch assay, migration of MCF-7 cells; format: cell-based; conditions: MCF-7, 10 μM, 48 hours; control group 30.97 ± 1.79
Outline: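 MCF-7 monolayers scratched, then cultured 48 hours in 2% FBS medium with test peptide at 10 μM versus PBS control, triplicate wells. Migration rate (%) = (original − current scratch width)/original width × 100, measured from images.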

[8] = test system: human prostate cancer cells (22RV1); assay: scratch assay, migration of 22RV1 cells; format: cell-based; conditions: 22RV1, 10 μM, 48 hours; control group 25.41 ± 5.01
Outline: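 22RV1 monolayers (seeded 1-2×10^5 cells/well) were scratched, washed, then given 2% FBS medium with 10 μM polypeptide or PBS, triplicate wells, for 48 h. Migration rate (%) = (original − current scratch width)/original width ×100, from ≥3 images per well.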

Row | Substance | Weight of tumor (g) (mean ± SD) [1] | Volume of tumor (mm^3) (mean ± SD) [1] | Migration rate (%) (mean ± SD, P) [2] | Number of cells (mean ± SD, P), invaded cells [3] | Migration rate (%) (mean ± SD, P) [4] | Migration rate (%) (mean ± SD, P) [5] | Migration rate (%) (mean ± SD, P) [6] | Migration rate (%) (mean ± SD, P) [7] | Migration rate (%) (mean ± SD, P) [8]
1 | N42: SEQ ID NO: 1 with deletion of positions 1-5 and 15-18, PEG at the amino terminal, one amino acid added at the carboxyl terminal ({PEG}-LAKENVTQDR; reading uncertain) | 0.83 ± 0.31 | 1149.73 ± 346.36 | 24.26 ± 7.91,** % | 399 ± 21,*** | 30.92 ± 4.57,** % | 14.12 ± 9.89,** % | 17.91 ± 3.66,** % | 10.04 ± 2.28,** % | 5.89 ± 1.02,** %
2 | N43: SEQ ID NO: 1 with addition of one amino acid at the amino terminal, deletion of position 18, PEG at the carboxyl terminal (RYRVRFLAKENVTQDAED-{PEG}; reading uncertain) | 0.85 ± 0.14 | 1218.7 ± 190.78 | 18.87 ± 6.90,*** % | 251 ± 10,**** | 26.54 ± 7.89,** % | 10.38 ± 6.04,** % | 12.19 ± 5.70,** % | 7.83 ± 3.42,** % | 6.57 ± 1.35,** %
3 | N45: SEQ ID NO: 1 with V11R, deletion of positions 1-5 and 15-18, PEG modification at the carboxyl terminal (LAKENRTQD-{PEG}; reading uncertain) | 0.97 ± 0.28 | 1204.87 ± 212.94 | 45.16 ± 5.74,** % | 358 ± 23,*** | 52.98 ± 4.08,* % | 5.53 ± 2.87,*** % | 13.02 ± 4.54,** % | 17.06 ± 2.87,* % | 11.63 ± 2.82,* %
4 | N47: SEQ ID NO: 1 with N18R, deletion of positions 1-2, one amino acid added and PEG at the carboxyl terminal (VRFLAKENVTQDAEDRC-{PEG}; reading uncertain) | 0.75 ± 0.39 | 1748.82 ± 508.08 | 36.05 ± 5.62,** % | 133 ± 29,**** | 54.67 ± 7.02,* % | 14.66 ± 2.51,*** % | 21.82 ± 4.11,* % | 18.41 ± 2.35,* % | 5.92 ± 2.53,** %
5 | N48: SEQ ID NO: 1 with A7R, deletion of position 11 and position 18, PEG modification at the carboxyl terminal (YRVRFLRKENTQDAED-{PEG}; reading uncertain) | 0.71 ± 0.37 | 1558.12 ± 436.42 | 20.60 ± 4.71,*** % | 149 ± 12,**** | 25.43 ± 5.00,*** % | 12.62 ± 3.25,** % | 13.06 ± 3.2,** % | 15.62 ± 2.70,* % | 5.61 ± 3.14,** %
6 | N49: SEQ ID NO: 1 with A7R, deletion of positions 1-2 and position 18, PEG modification at the carboxyl terminal (VRFLRKENVTQDAED-{PEG}; reading uncertain) | 0.73 ± 0.26 | 1513.42 ± 287.49 | 17.71 ± 7.65,*** % | 141 ± 7,**** | 16.45 ± 5.88,*** % | 15.79 ± 4.48,** % | 13.41 ± 3.12,** % | 7.29 ± 3.80,** % | 6.18 ± 1.89,** %
7 | N50: SEQ ID NO: 1 with N18R, addition of 2 amino acid at the carboxyl terminal, PEG modification at the amino terminal ({PEG}-YRVRFLAKENVTQDAEDRCT; reading uncertain) | 0.85 ± 0.27 | 1463.11 ± 472.43 | 14.92 ± 8.62,*** % | 310 ± 30,*** | 16.03 ± 4.37,*** % | 18.35 ± 3.91,** % | 14.46 ± 5.73,** % | 6.83 ± 4.55,** % | 6.20 ± 3.31,** %
8 | N51: SEQ ID NO: 1 with A15R, one amino acid added at each terminal, PEG modification at the amino terminal ({PEG}-FYRVRFLAKENVTQDREDNC; reading uncertain) | 0.75 ± 0.37 | 1412.56 ± 599.92 | 20.85 ± 8.10,*** % | 282 ± 28,**** | 28.61 ± 5.89,** % | 10.6 ± 2.33,*** % | 14.5 ± 2.68,** % | 8.56 ± 4.18,** % | 5.23 ± 2.42,** %
9 | N52: SEQ ID NO: 1 with N18R, addition of two amino acids and PEG modification at the carboxyl terminal (YRVRFLAKENVTQDAEDRCT-{PEG}; reading uncertain) | 0.7 ± 0.2 | 1425.2 ± 555.76 | 23.11 ± 4.27,*** % | 237 ± 27,**** | 15.39 ± 7.19,*** % | 13.87 ± 3.13,*** % | 13.19 ± 4.84,** % | 7.23 ± 2.41,** % | 5.43 ± 1.97,** %
